Measured values reported in patent US4591589A, “2-aryl pyrazolo[4,3-c]cinnolin-3-ones” (Roussel Uclaf, priority 1985, dated 1986).
Structures can show the parent of a compound that is named as a salt.

Experiments:
mice [1] = assay: Acute toxicity (lethal dose LD0); assay type: in vivo; details: oral
Method: The lethal dose LD0 of the compound of Example 1 was evaluated after administration orally in mice. The maximum dose not causing any mortality in 8 days was called the LD0.

rats [2] = assay: Staircase test; assay type: in vivo; details: 20 mg/kg; 1 hour after administration; counted for 3 minutes
Method: The apparatus and the method used are described by THIEBOT et al [Psychol-pharmacologia (Berlin), 1973, Vol. 31, p. 77]. The experiment was carried out on groups of 15 inexperienced rats and the animals were put individually in the enclosure 1 hour after administration of the compound studied. The number of straightenings up and the number of steps claimed were counted for 3 minutes.

rats [3] = assay: Plate test in rats (electric shocks); assay type: in vivo; details: oral, 20 mg/kg, half an hour after administration, vs control
Method: (§1) The apparatus (Apelab) and the method used are described by BOISSER et al [European J. Pharmacol., 1968, Vol. 4, p. 145]. The plates were linked to a stimulator (U. Sachs, Roucaire) which enabled electric shocks of 120 volts to be delivered during 0.5 seconds. The tests were carried out on groups of 10 mice or rats half an hour after oral administration of the compound studied and each animal has put individually on the apparatus. After 15 seconds of free exploration, it was submitted to an electric shock each time it passed from one plate to another, a minimum of 3 seconds being observed between two shocks. The number of shocks delivered was counted over 1 minute and the results obtained were compared to those observed in the control animals in a test by Dunnett.

mice [4] = assay: Plate test in mice (electric shocks); assay type: in vivo; details: for anxiety reducing activity (plate test): conclusion in words, mice (Example 1 also rats)
Method: as §1

benzodiazepine receptors = assay: Affinity for benzodiazepine receptors (displacement of 3H diazepam, rat brain cortex homogenate); assay type: binding; details: rat brain cortices; 3H diazepam 10^-9 M, 30 minutes at 0° C., pH 7.4; read-out: Cl 50 (concentration inhibiting by 50% the specific bonding of 3H diazepam)
Method: The cortices removed from the brains of male rats weighing an average of 150 g were homogenized to one twentieth part (weight/volume) in 0.32M sucrose. After centrifuging the homogenate at 1000 g for 10 minutes at 0° C., the supernatant layer was centrifuged at 30,000 g for 20 minutes at +4° C. The residue was suspended in 20 volumes of Tris HCl 50 mM buffer with a pH of 7.4 and centrifuged at 30,000 g for 20 minutes at +4° C. The new residue obtained was suspended in 50 ml of Krebs Tris HCl buffer, pH 7.4.
2 ml of this suspension in the presence of ^3 H diazepam at a concentration of 10^-9 M was incubated for 30 minutes at 0° C., alone, and with increasing concentrations of the product under test, or to determine the non-specific fixation, with non-radio-active diazepam at a concentration of 10^-6 M. The incubated suspensions were filtered on Whatman GF/C and the filters were washed twice with 5 ml of Krebs Tris HCl buffer, pH 7.4, at 0° C. The radioactivity of the filters was measured by liquid scintillation. The activity of the product was expressed by CI 50: concentration inhibiting by 50% the specific bonding of ^3 H diazepam, determined graphically.

| Structure (SMILES) | LD0 (maximum dose not causing any mortality in 8 days) (mice [1]) | IC50 (benzodiazepine receptors) [nM] | other results |
| --- | --- | --- | --- |
| O=c1c2n[nH]c3ccc(Cl)cc3c-2nn1-c1ccccc1 [Example 1, 8-chloro-2,5-dihydro-2-phenyl-3H-pyrazolo[4,3-c]cinnolin-3-one] | > 400 |  | decrease in number of straightenings up (rats [2]): 46%; increase in number of shocks delivered (rats [3]): 41%; increase in number of shocks delivered (mice [4]; mice, oral, 20 mg/kg, half an hour after administration, vs control): 63% |
| Cl.O=c1c2n[nH]c3ccccc3c-2nn1-c1ccccn1 [Example 8, 2,5-dihydro-(2-pyridin-2-yl)-3H-pyrazolo[4,3-c]cinnolin-3-one hydrochloride] | > 400 | 3.1 | anxiety reducing activity (plate test) (mice [4]): good anxiety reducing activity; increase in number of shocks (mice [4]; mice, oral, 100 mg/kg, half an hour after administration, vs control): 50% |
| COc1ccc(-n2nc3c4ccccc4[nH]nc-3c2=O)cc1 [Example 4, 2,5-dihydro-2-(4-methoxyphenyl)-3H-pyrazolo[4,3-c]cinnolin-3-one] | > 400 | 2.5 |  |
| O=c1c2n[nH]c3ccccc3c-2nn1-c1ccc(Cl)cc1 [Example 2, 2-(4-chlorophenyl)-2,5-dihydro-3H-pyrazolo[4,3-c]cinnolin-3-one] |  | 3.7 |  |
| O=c1c2n[nH]c3ccccc3c-2nn1-c1ccc(OCc2ccccc2)cc1 [Example 5, 2,5-dihydro-2-(4-benzyloxyphenyl)-3H-pyrazolo[4,3-c]cinnolin-3-one] | > 400 | 18 |  |
| O=c1c2n[nH]c3ccccc3c-2nn1-c1cccc(C(F)(F)F)c1 [Example 6, 2,5-dihydro-2-(3-trifluoromethylphenyl)-3H-pyrazolo[4,3-c]cinnolin-3-one] | > 400 |  |  |
| O=c1c2n[nH]c3ccccc3c-2nn1-c1nccs1 [Example 9, 2,5-dihydro-(2-thiazol-2-yl)-3H-pyrazolo[4,3-c]cinnolin-3-one hydrochloride] |  | 3.1 |  |
| O=c1c2n[nH]c3ccccc3c-2nn1-c1ccccc1 [Example 3, 2,5-dihydro-2-phenyl-3H-pyrazolo[4,3-c]cinnolin-3-one] | > 200 | 0.9 | anxiety reducing activity (plate test) (mice [4]): good anxiety reducing activity; increase in number of shocks (mice [4]; mice, oral, 50 mg/kg, half an hour after administration, vs control): 50% |
| O=c1c2n[nH]c3ccccc3c-2nn1C1=NCCS1 [Example 10, 2,5-dihydro-(2-dihydrothiazol-2-yl)-3H-pyrazolo[4,3-c]cinnolin-3-one hydrochloride] | > 400 |  |  |
| Cc1ccccc1-n1nc2c3ccccc3[nH]nc-2c1=O [Example 7, 2,5-dihydro-2-(2-methylphenyl)-3H-pyrazolo[4,3-c]cinnolin-3-one] | 200 |  |  |
